Test results: US20230407373A1 (priority 2020, published 2023)
Where two headings read alike, the source gives them in different places.

Experiments:
Type in all cases: binding
[1] = test system: HCoV-OC43 gRNA and sgRNA; conditions: for target (unweighted spectral count): OC43 Probe II, infected cells; for target (spectral count) / background (spectral count): type s_36_m, Probe II; for target (spectral count): HCoV-OC43-infected HCT-8 cells; for background (spectral count): uninfected-probe control
[2] = test system: SARS-CoV-2 gRNA and sgRNAs; conditions: for target (unweighted spectral count in RNP capture): Probe II capture, LC-MS/MS LFQ; for background (unweighted spectral count in control): no-probe control pull-down, used as background for Probe II; for back-ground (unweighted spectral count of the protein in the control experiment): protein background of the control (e.g. no-probe) experiment; for target (unweighted spectral count of the protein in the RNP capture experiment): LC-MS/MS label-free quantification, probe pool not given
[3] = test system: gRNA of HCoV-OC43; conditions: for target (spectral count) / background (spectral count): type g_36_m, 36 hpi, Probe I; for target (spectral count): HCoV-OC43-infected HCT-8 cells; for background (spectral count): uninfected-probe control
[4] = 24 hpi, type n_24_v, tested against no-probe control, FDR<10%
[5] = type n_48_v, 48 hpi, OC43 Probe II capture on infected cells
[6] = type n_48_v, 48 hpi, no-probe control on infected cells
[7] = 36 hpi, type n_36_v, tested against no-probe control, FDR<10%
[8] = type n_48_v: 48 hours post-infection, infected cells, OC43 Probe I, unweighted spectral count
[9] = type n_48_v: 48 hours post-infection, no-probe control on infected cells
[10] = 24 hpi (type n_24_v), tested against no-probe control
[11] = 12 hpi (type n_12_v), tested against no-probe control

Q: PRPF8 was tested. Which “target (unweighted spectral count, OC43 Probe II capture)” value [1, 4] did it give?
A: Its value is 7.

Q: And the “target (unweighted spectral count, OC43 Probe II)” value [1, 5]?
A: Its value is 20.

Q: And the “background (unweighted spectral count, no-probe control)” value [1, 6]?
A: The value was 5.

Q: Which “target (unweighted spectral count, OC43 Probe II capture)” value [1, 7] does the source give for DDX54 here?
A: Its value is 5.

Q: What does the source list for LSM14A?
A: target (unweighted spectral count in RNP capture) [2]: 8; background (unweighted spectral count in control) [2]: 1

Q: What does the source list for HNRNPK: host protein, UniProt P61978?
A: target (unweighted spectral count in RNP capture) [2]: 52; background (unweighted spectral count in control) [2]: 1; target (spectral count) [3]: 65; background (spectral count) [3]: 16; target (spectral count, OC43 Probe I RNP capture) [3, 8]: 64; background (spectral count, no-probe control) [3, 9]: 8; target (unweighted spectral count, OC43 Probe II capture) [1, 7]: 66; target (unweighted spectral count) [1, 10]: 28; target (unweighted spectral count, OC43 Probe II) [1, 5]: 63; background (unweighted spectral count, no-probe control) [1, 6]: 8; target (spectral count) ([1]; 36 hpi): 66; background (spectral count) ([1]; 36 hpi): 12

Q: SRSF1 was tested. Which “target (unweighted spectral count in RNP capture)” value [2] did it give?
A: Its value is 8.

Q: What about the “background (unweighted spectral count in control)” value [2] of the same substance?
A: Its value is 1.

Q: What about the “background (spectral count, no-probe control)” value [3] of the same substance?
A: The value was 1.

Q: And the “target (spectral count, OC43 Probe I RNP capture)” value [3]?
A: Its value is 17.

Q: What about the “background (unweighted spectral count, no-probe control)” value [1] of the same substance?
A: The value was 1.

Q: What about the “target (unweighted spectral count, OC43 Probe II capture)” value [1] of the same substance?
A: Its value is 14.

Q: What about the “target (unweighted spectral count, OC43 Probe II)” value [1] of the same substance?
A: Its value is 20.

Q: What does the source list for USP10?
A: target (spectral count, OC43 Probe I RNP capture) [3, 8]: 6; background (spectral count, no-probe control) [3, 9]: 1; target (unweighted spectral count, OC43 Probe II capture) [1, 4]: 5; target (unweighted spectral count, OC43 Probe II capture) [1, 7]: 4; target (unweighted spectral count, OC43 Probe II) [1, 5]: 7; background (unweighted spectral count, no-probe control) [1, 6]: 1

Q: Which results are given for SNRNP70: host protein, UniProt P08621?
A: target (spectral count) [3]: 9; background (spectral count) [3]: 1; target (unweighted spectral count, OC43 Probe II) [1, 5]: 8; background (unweighted spectral count, no-probe control) [1, 6]: 2

Q: With KHDR ? S1 as the substance, how does the “target (spectral count, OC43 Probe I RNP capture)” value [3, 8] read?
A: The value was 18.

Q: What about the “background (spectral count, no-probe control)” value [3, 9] of the same substance?
A: The value was 1.

Q: With NUMA1 as the substance, how does the “target (unweighted spectral count)” value [1, 11] read?
A: Its value is 5.

Q: Which “target (unweighted spectral count, OC43 Probe II capture)” value [1, 7] does the source give for PPP1CA here?
A: The value was 4.

Q: With ATP13A1 as the substance, how does the “target (unweighted spectral count, OC43 Probe II capture)” value [1, 7] read?
A: Its value is 6.

Q: Which results are given for PPIA?
A: back-ground (unweighted spectral count of the protein in the control experiment) [2]: 10; target (spectral count, OC43 Probe I RNP capture) [3, 8]: 10; background (spectral count, no-probe control) [3, 9]: 1; target (unweighted spectral count, OC43 Probe II capture) [1, 7]: 13; target (unweighted spectral count, OC43 Probe II) [1, 5]: 12; background (unweighted spectral count, no-probe control) [1, 6]: 1

Q: For LGALS3, which “target (unweighted spectral count, OC43 Probe II)” value [1, 5] is on record?
A: The value was 5.

Q: And the “background (unweighted spectral count, no-probe control)” value [1, 6]?
A: The value was 1.

Q: For KHDRB51, which “target (unweighted spectral count in RNP capture)” value [2] is on record?
A: The value was 13.

Q: What about the “background (unweighted spectral count in control)” value [2] of the same substance?
A: Its value is 1.

Q: For HIST1H1C, which “target (unweighted spectral count)” value [1, 11] is on record?
A: The value was 7.

Q: LARP4 was tested. Which “target (unweighted spectral count in RNP capture)” value [2] did it give?
A: The value was 10.

Q: What about the “background (unweighted spectral count in control)” value [2] of the same substance?
A: The value was 1.

Q: What about the “target (unweighted spectral count, OC43 Probe II capture)” value [1, 7] of the same substance?
A: Its value is 4.

Q: For XRCC5: host protein, UniProt P13010, which “target (spectral count)” value [3] is on record?
A: The value was 8.

Q: And the “background (spectral count)” value [3]?
A: Its value is 1.

Q: And the “target (spectral count, OC43 Probe I RNP capture)” value [3, 8]?
A: The value was 10.

Q: What about the “background (spectral count, no-probe control)” value [3, 9] of the same substance?
A: Its value is 1.

Q: And the “target (unweighted spectral count, OC43 Probe II capture)” value [1, 7]?
A: Its value is 7.

Q: What about the “target (unweighted spectral count, OC43 Probe II)” value [1, 5] of the same substance?
A: Its value is 12.

Q: What about the “background (unweighted spectral count, no-probe control)” value [1, 6] of the same substance?
A: The value was 1.

Q: And the “target (spectral count)” value ([1]; 36 hpi)?
A: The value was 7.

Q: What about the “background (spectral count)” value ([1]; 36 hpi) of the same substance?
A: Its value is 1.

Q: Which results are given for RP22L1?
A: target (unweighted spectral count in RNP capture) [2]: 7; background (unweighted spectral count in control) [2]: 1

Q: What does the source list for RBPMS?
A: target (unweighted spectral count of the protein in the RNP capture experiment) [2]: 5; back-ground (unweighted spectral count of the protein in the control experiment) [2]: 1

Q: With SUPT16H as the substance, how does the “target (unweighted spectral count)” value [1, 11] read?
A: Its value is 4.

Q: What does the source list for GEMIN5?
A: target (unweighted spectral count of the protein in the RNP capture experiment) [2]: 5; back-ground (unweighted spectral count of the protein in the control experiment) [2]: 1

Q: With MYH9 as the substance, how does the “target (unweighted spectral count of the protein in the RNP capture experiment)” value [2] read?
A: The value was 9.

Q: And the “back-ground (unweighted spectral count of the protein in the control experiment)” value [2]?
A: The value was 2.

Q: And the “target (unweighted spectral count, OC43 Probe II capture)” value [1, 4]?
A: The value was 6.

Q: What about the “target (unweighted spectral count, OC43 Probe II)” value [1, 5] of the same substance?
A: Its value is 9.

Q: And the “background (unweighted spectral count, no-probe control)” value [1, 6]?
A: Its value is 1.

Q: H2AFY was tested. Which “target (unweighted spectral count)” value [1, 11] did it give?
A: The value was 4.

Q: Which “target (unweighted spectral count, OC43 Probe II capture)” value [1, 7] does the source give for EEF1G here?
A: The value was 4.

Q: EIF4G1: host protein, UniProt Q04637 was tested. Which “target (unweighted spectral count in RNP capture)” value [2] did it give?
A: The value was 18.

Q: And the “background (unweighted spectral count in control)” value [2]?
A: Its value is 1.

Q: What about the “target (unweighted spectral count, OC43 Probe II capture)” value [1, 4] of the same substance?
A: Its value is 4.

Q: What about the “target (unweighted spectral count, OC43 Probe II capture)” value [1, 7] of the same substance?
A: Its value is 7.

Q: And the “target (spectral count)” value ([1]; 36 hpi)?
A: The value was 7.

Q: What about the “background (spectral count)” value ([1]; 36 hpi) of the same substance?
A: The value was 1.

Q: For TCP1, which “target (unweighted spectral count, OC43 Probe II capture)” value [1, 7] is on record?
A: The value was 4.

Q: Which results are given for LARP4B?
A: target (unweighted spectral count of the protein in the RNP capture experiment) [2]: 6; back-ground (unweighted spectral count of the protein in the control experiment) [2]: 1; target (unweighted spectral count) [1, 10]: 6; target (unweighted spectral count, OC43 Probe II) [1, 5]: 6; background (unweighted spectral count, no-probe control) [1, 6]: 1

Q: ZC3H7B was tested. Which “target (unweighted spectral count)” value [1, 10] did it give?
A: The value was 6.
